# Experimental data taken from paper PMC9894841, “Characterisation of a cyclic peptide that binds to the RAS binding domain of phosphoinositide 3-kinase p110α” (Scientific Reports, 2023).
# Residues, ends and D or L forms follow the SMILES beside them.
# Biological target: T1, GST-RBDα/KRAS (Homo sapiens, UniProt P42336)
# T1 construct: we created a fusion of the RBD (amino acids 133 – 314) with GST; expressed in transfected cells; host or cells: E. coli strain SNS126 (cassette integrated via pAH68)
# T1 sequence (P42336 133-314): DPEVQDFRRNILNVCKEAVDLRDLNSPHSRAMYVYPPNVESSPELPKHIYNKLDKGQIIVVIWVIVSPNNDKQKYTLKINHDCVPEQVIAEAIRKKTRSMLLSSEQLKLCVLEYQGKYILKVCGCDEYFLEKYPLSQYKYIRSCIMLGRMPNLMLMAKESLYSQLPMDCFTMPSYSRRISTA
# Assay: GST-RBDα/KRAS reverse two-hybrid system (RTHS), SICLOPPS screen
# Assay type: cell-based, E. coli
# Details: arabinose induced expression of the cyclic peptide
# Description: The SICLOPPS technique as previously published is based on two steps: first, building a reverse two-hybrid system (RTHS) that expresses the target protein complex in bacteria as a screening platform and second, the production of a genetically encoded cyclic peptide library[25]–[29]. […] Also, the expression of the full length p110α needs to be in association with the regulatory subunit p85α in order to achieve a stable protein dimer, which makes it a large and complex protein to express in bacteria. In a successful RTHS system, the engineered bacterial cell line should show a reduction of growth on selective media upon induction of expression of the target protein complex with increasing isopropyl β-d-1-thiogalactopyranoside (IPTG)[27]–[29]. […] We hypothesised that this could be due to a lack of solubility of RBDα, a previously described feature of the RBDs of p110 proteins. Therefore, we designed another RTHS carrying a GST fusion tag at the N-terminus of the RBDα (GST-RBDα/KRAS RTHS).
# We used the GST-RBDα/KRAS RTHS to screen a CXXXXX (where X is any of the 20 canonical amino acids) SICLOPPS plasmid library of 3.2 million genetically encoded cyclic hexapeptides. The cyclic peptides contain an invariant cysteine and five other amino acids that are each equally distributed between the twenty possibilities. Thus, each SICLOPPS plasmid contains a different sequence representing a unique peptide.
# Due to the lack of solubility of the p110α-RBD we created a fusion of the RBD (amino acids 133 – 314) with GST (Glutathione S-transferase) by PCR amplification, to produce a recombinant protein of GST-RBD (hereafter RBD). Both KRAS (amino acids 1–168—lacking the Hyper Variable Region) and the RBD were cloned into the pTHCP14 vector that contains two bacteriophage repressors P22 and 434, producing a cassette that consists of two fusion proteins—KRAS with 434 and RBD with P22. This cassette was then sub-cloned into the CRIM integration plasmid pAH68—for integration into E. coli strain SNS126 that contains the chimeric P22 and 434 operators. When expressed, the interaction of KRAS with the RBD brings together the P22 and the 434 repressors to form a dimer that will interact with the chimeric P22 and 434 operators—resulting in no growth on selective media.
# The SICLOPPS library was generated by PCR amplification using degenerate primers encoding cyclo-CXXXXX hexapeptides (where X is any amino acid), producing around 3.2 million compounds. The SICLOPPS RTHS formation, cyclic peptide production and library screening were followed as described[24],[25],[46].
row,Compound,regrowth of the GST-RBDα/KRAS RTHS on selective media with IPTG
1,"CC(C)C[C@@H]1NC(=O)[C@H](CCCCN)NC(=O)[C@H](CS)NC(=O)[C@H](CC(C)C)NC(=O)[C@H](C(C)C)NC(=O)[C@H](C(C)C)NC1=O [cyclo-CKLVVL, Cyclo-CKLVVL] (cyclo(CKLVVL))",regrowth
2,"CC(C)C[C@@H]1NC(=O)[C@H](CS)NC(=O)[C@H](Cc2ccc(O)cc2)NC(=O)[C@H](Cc2c[nH]c3ccccc23)NC(=O)[C@H](Cc2c[nH]c3ccccc23)NC(=O)[C@H](C(C)C)NC1=O [cyclo-CLVWWY, Cyclo-CLVWWY] (cyclo(CLVWWY))",regrowth
3,"CC(C)C[C@@H]1NC(=O)[C@H](CS)NC(=O)[C@H](Cc2c[nH]c3ccccc23)NC(=O)[C@H](Cc2c[nH]c3ccccc23)NC(=O)[C@H](Cc2ccc(O)cc2)NC(=O)[C@H](Cc2c[nH]c3ccccc23)NC1=O [cyclo-CLWYWW, Cyclo-CLWYWW] (cyclo(CLWYWW))",regrowth
4,"CSCC[C@@H]1NC(=O)[C@H](CS)NC(=O)[C@H](CCCNC(=N)N)NC(=O)CNC(=O)CNC(=O)[C@H](CO)NC1=O [cyclo-CMSGGR, Cyclo-CMSGGR] (cyclo(CMSGGR))",regrowth
5,"CC[C@H](C)[C@@H]1NC(=O)[C@H](CCCNC(=N)N)NC(=O)[C@H](CS)NC(=O)[C@H]([C@@H](C)CC)NC(=O)[C@H](C(C)C)NC(=O)[C@H](C(C)C)NC1=O [cyclo-CRIVVI, Cyclo-CRIVVI] (cyclo(CRIVVI))",regrowth
6,"CC[C@H](C)[C@@H]1NC(=O)[C@H](C(C)C)NC(=O)[C@H](CS)NC(=O)[C@H](C(C)C)NC(=O)[C@H](C(C)C)NC(=O)[C@H](CC(C)C)NC1=O [cyclo-CVILVV, Cyclo--CVILVV] (cyclo(CVILVV))",regrowth
7,"CC(C)C[C@@H]1NC(=O)[C@H](Cc2ccc(O)cc2)NC(=O)[C@H](CC(C)C)NC(=O)[C@H](CC(C)C)NC(=O)[C@H](Cc2c[nH]c3ccccc23)NC(=O)[C@H](CS)NC1=O [cyclo-CWLLYL, Cyclo-CWLLYL] (cyclo(CWLLYL))",regrowth
8,Cyclo-CAWCGR,regrowth

# Biological target: p110α (p110α/p85α) (Homo sapiens, UniProt P42336)
# Sequence (P42336 whole entry, species assumed): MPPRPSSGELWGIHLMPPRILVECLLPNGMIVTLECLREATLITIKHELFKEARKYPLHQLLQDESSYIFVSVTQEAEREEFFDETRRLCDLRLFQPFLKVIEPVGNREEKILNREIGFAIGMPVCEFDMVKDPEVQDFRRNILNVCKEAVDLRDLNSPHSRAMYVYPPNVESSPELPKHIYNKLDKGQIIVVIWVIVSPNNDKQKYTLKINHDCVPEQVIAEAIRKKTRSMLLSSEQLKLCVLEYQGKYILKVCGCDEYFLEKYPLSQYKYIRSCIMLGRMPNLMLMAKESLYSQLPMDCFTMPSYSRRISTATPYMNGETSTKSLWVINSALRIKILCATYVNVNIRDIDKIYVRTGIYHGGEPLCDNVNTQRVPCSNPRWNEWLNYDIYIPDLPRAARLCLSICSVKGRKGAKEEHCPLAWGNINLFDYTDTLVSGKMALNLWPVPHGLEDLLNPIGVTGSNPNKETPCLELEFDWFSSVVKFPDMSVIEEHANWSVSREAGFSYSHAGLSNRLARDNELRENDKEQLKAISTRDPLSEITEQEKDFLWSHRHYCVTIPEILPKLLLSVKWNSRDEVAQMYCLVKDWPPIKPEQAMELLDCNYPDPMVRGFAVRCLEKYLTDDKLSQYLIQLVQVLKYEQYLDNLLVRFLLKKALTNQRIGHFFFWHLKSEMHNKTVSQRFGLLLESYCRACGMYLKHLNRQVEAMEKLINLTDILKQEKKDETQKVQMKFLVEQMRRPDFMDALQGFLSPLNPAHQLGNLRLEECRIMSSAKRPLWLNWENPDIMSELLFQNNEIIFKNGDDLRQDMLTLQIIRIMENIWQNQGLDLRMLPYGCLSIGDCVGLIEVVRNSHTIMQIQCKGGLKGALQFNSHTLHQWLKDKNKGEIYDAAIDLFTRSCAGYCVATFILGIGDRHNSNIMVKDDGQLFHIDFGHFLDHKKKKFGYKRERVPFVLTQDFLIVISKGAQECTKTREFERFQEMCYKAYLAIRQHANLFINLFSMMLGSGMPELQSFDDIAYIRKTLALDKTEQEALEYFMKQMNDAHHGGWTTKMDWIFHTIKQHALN
# Sequence (P27986 whole entry partner, species assumed): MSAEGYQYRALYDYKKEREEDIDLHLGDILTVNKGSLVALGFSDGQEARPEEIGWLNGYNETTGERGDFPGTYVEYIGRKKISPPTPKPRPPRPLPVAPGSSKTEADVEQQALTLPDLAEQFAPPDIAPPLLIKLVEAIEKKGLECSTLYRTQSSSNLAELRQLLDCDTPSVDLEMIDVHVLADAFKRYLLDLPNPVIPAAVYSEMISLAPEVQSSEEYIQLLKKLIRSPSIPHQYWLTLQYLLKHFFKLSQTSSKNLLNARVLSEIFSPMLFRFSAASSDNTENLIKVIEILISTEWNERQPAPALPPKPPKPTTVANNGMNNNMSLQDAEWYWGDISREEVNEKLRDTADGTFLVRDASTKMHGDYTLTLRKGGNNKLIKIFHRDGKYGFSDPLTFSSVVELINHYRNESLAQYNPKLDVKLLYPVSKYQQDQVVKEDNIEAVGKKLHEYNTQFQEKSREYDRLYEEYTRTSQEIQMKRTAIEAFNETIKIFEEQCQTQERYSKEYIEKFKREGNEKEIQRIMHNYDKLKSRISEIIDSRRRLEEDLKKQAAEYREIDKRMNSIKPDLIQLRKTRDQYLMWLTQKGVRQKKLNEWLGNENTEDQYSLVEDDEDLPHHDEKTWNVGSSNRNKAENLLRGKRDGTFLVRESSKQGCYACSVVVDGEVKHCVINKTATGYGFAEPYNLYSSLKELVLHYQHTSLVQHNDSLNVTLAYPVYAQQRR
# Assay: Microscale thermophoresis (MST) binding to labelled p110α/p85α
# Details: MST
row,Compound,increase in affinity for p110α over cyclo-CRVLAA
1,"CC(C)C[C@@H]1NC(=O)[C@H](C(C)C)NC(=O)[C@H](CCCNC(=N)N)NC(=O)[C@H](CS)NC(=O)[C@H](CCCNC(=N)N)NC(=O)[C@H](C)NC1=O [cyclo-CRVLAR, Cyclo-CRVLAR] (cyclo(ARCRVL))",tenfold

# Same assay, conditions: labelled protein 100 nM, 25 °C
row,Compound,Kd
1,"CC(C)C[C@@H]1NC(=O)[C@H](C(C)C)NC(=O)[C@H](CCCNC(=N)N)NC(=O)[C@H](CS)NC(=O)[C@H](CCC(=O)O)NC(=O)[C@H](C)NC1=O [CRVLAE, Cyclo-CRVLAE] (cyclo(CRVLAE))",≥ 817 µM
2,"CC(C)C[C@@H]1NC(=O)[C@H](C(C)C)NC(=O)[C@H](CCCNC(=N)N)NC(=O)[C@H](CS)NC(=O)[C@H](C)NC(=O)[C@H](CC(=O)O)NC1=O [CRVLDA, Cyclo-CRVLDA] (cyclo(CRVLDA))",≥ 476 µM
3,"CC(C)C[C@@H]1NC(=O)[C@H](C(C)C)NC(=O)[C@H](CCCNC(=N)N)NC(=O)[C@H](CS)NC(=O)[C@H](C)NC(=O)[C@H](CCC(=O)O)NC1=O [CRVLEA, Cyclo-CRVLEA] (cyclo(CRVLEA))",≥ 1210 µM
4,"CC(C)C[C@@H]1NC(=O)[C@H](C(C)C)NC(=O)[C@H](CCCNC(=N)N)NC(=O)[C@H](CS)NC(=O)[C@H](C)NC(=O)[C@H](CCCNC(=N)N)NC1=O [CRVLRA, Cyclo-CRVLRA] (cyclo(CRVLRA))",≥ 140 µM
